Experimental data published in patent US12648986B2, “PLD for use in combination in the treatment of coronavirus” (PHARMA MAR, S.A., priority 2020, dated 2026).
Read-outs that look alike come from different tables or passages of the source.

Tests used:
SARS-CoV-2 [1] = assay: Cytopathic effect on Vero E6 cells exposed to SARS-CoV-2 (CellTiter-Glo); format: cell-based; conditions: for IC50: read-out: mean IC50 value and SD, SARS-CoV-2-induced cytopathic effect
SARS-CoV-2 [2] = assay: SARS-CoV-2 replication in human stem cell-derived pneumocyte like cells; format: cell-based; conditions: 10 nM plitidepsin for 1 hour before infection, 48 hour incubation
Procedure: Several in vitro experiments aimed at determining the effect of plitidepsin on SARS-CoV-2 were carried out and are disclosed herein. […] In another study, human stem cell-derived pneumocyte like cells were prophylactically exposed to 10 nm plitidepsin for 1 hour and then infected with SARS-CoV-2 (4×10^4 plaque forming units). After a 48 hour incubation period, both antiviral and cytotoxic plitidepsin effects were determined.

SARS-CoV-2 [3] = assay: K18-hACE2 transgenic mice infected with SARS-CoV-2; format: in vivo
SARS-CoV-2 [4] = assay: Vero E6 cells infected with SARS-CoV-2, direct quantitation of nucleocapsid (N) protein; format: cell-based; conditions: Severe acute respiratory syndrome coronavirus 2, Vero C1008, two studies, read-out: IC50, SARS-CoV-2 growth in vitro
SARS-CoV-2 [5] = assay: Mouse model of adenovirus-mediated hACE2 infected with SARS-CoV-2; format: in vivo
CD45+ cells = assay: Ex vivo cytokine expression in CD45+ cells from broncho-alveolar lavages of mice, LPS-B5 stimulation; conditions: cells from plitidepsin treated mice
Source text: An ex vivo study assessed the effect of plitidepsin on expression of the cytokines IL 6, IL 10, and TNFα in the lungs of mice.

[6] = system: human stem cell-derived pneumocyte like cells; conditions: 10 nm plitidepsin, 48 hour incubation
eEF1A = eEF1A (Oryctolagus cuniculus, UniProt Q71V39); assay: Binding of 14C-plitidepsin to purified eEF1A; conditions: eEF1A purified from rabbit muscle
Sequence of eEF1A (Q71V39 whole entry): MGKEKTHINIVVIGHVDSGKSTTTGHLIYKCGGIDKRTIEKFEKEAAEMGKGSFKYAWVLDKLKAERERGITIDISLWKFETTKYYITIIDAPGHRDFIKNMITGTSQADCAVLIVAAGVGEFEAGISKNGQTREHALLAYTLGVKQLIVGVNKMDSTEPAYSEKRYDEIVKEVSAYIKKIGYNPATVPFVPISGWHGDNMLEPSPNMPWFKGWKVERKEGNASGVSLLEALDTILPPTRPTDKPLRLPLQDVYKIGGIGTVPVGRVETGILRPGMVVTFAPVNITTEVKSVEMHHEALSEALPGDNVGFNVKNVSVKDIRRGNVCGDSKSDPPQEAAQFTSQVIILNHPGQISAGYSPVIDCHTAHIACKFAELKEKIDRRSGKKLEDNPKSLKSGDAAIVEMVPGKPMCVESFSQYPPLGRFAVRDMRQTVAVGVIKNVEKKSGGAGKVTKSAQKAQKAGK

[7] = Severe acute respiratory syndrome coronavirus 2, Vero C1008, 72 h

CCN(CCO)CCCC(C)Nc1ccnc2cc(Cl)ccc12 (stereo not shown) [Hydroxychloroquine, hydroxychloroquine]
cytotoxic effects of the drug at concentrations inhibiting viral-induced cytopathic effect (Vero E6 cells; Vero E6, absence of virus): no cytotoxic effects of the drug were observed
IC50 (SARS-CoV-2 [1]; [7]): 9300 ± 11100 nM

nelfinavir mesylate hydrate
cytotoxic effects of the drug at concentrations inhibiting viral-induced cytopathic effect (Vero E6 cells): no cytotoxicity of the drug was observed
capacity to inhibit SARS-CoV-2-induced cytopathic effect (SARS-CoV-2 [1]; Vero E6, 100 μM to 0.0512 nM): confirmed to have in vitro capacity to inhibit SARS-CoV-2-induced cytopathic effect

CC[C@H](C)[C@H]1NC(=O)[C@@H](NC(=O)[C@@H](CC(C)C)N(C)C(=O)[C@@H]2CCCN2C(=O)C(C)=O)[C@@H](C)OC(=O)[C@H](Cc2ccc(OC)cc2)N(C)C(=O)[C@@H]2CCCN2C(=O)[C@H](CC(C)C)NC(=O)[C@@H](C)C(=O)[C@H](C(C)C)OC(=O)C[C@@H]1O [PLD, (−)-(3S,6R,7S,10R,11S,15S,17S,20S,25aS)-11-hydroxy-3-(4-methoxybenzyl)-2,6,17-trimethyl-15-(1-methylethyl)-7-[[(2R)-4-methyl-2-[methyl[[(2S)-1-(2-oxopropanoyl)pyrrolidin-2-yl]carbonyl]amino]pentanoyl]amino]-10-[(1S)-1-methylpropyl]-20-(2-methylpropyl)tetradecahydro-15H-pyrrolo[2,1-f]-[1,15,4,7,10,20]dioxatetrazacyclotricosine-1,4,8,13,16,18,21(17H)-heptaone]
replication of SARS-CoV-2 (SARS-CoV-2 [2]): completely eliminated replication of SARS-CoV-2
antiviral effects in vivo (SARS-CoV-2 [3]): potent antiviral effects
IC50 (SARS-CoV-2 [4]): 0.7 to 3 nM
cytotoxic effects of the drug at concentrations inhibiting viral-induced cytopathic effect (Vero E6 cells; Vero E6, absence of virus): no cytotoxic effects of the drug were observed
antiviral effects in vivo (SARS-CoV-2 [5]): potent antiviral effects
IL 6, IL 10 and TNFα in CD45+ cells upon LPS-B5 stimulation vs nonstimulated controls (CD45+ cells): failed to show a marked increase
IC50 (SARS-CoV-2 [1]; [7]): 51 ± 20 nM
cytotoxicity against pneumocyte like cells [6]: no observable cytotoxicity
affinity for eEF1A (eEF1A): high affinity
rate of dissociation from eEF1A (eEF1A): low rate of dissociation

MDL28170 [MDL 28170]
cytotoxic effects of the drug at concentrations inhibiting viral-induced cytopathic effect (Vero E6 cells; Vero E6, absence of virus): no cytotoxicity of the drug was observed
IC50 (SARS-CoV-2 [1]; Vero E6, single drug, 3 days post infection, independent experiments with two replicates each): 140 ± 60 nM
